For series [1] the following is noted: relative to hydroquinone; cited from earlier work.
A short description of series [2]: In vitro skin permeation study, flow-through Franz diffusion cell, ViaDerm (micro-channel) treated vs intact skin. It counts as in vitro ADME, porcine. The note with it: for Total permeated amount: after 24 hr. The method, then:
The density of the microelectrode array was 100 microelectrodes/cm^2. […] The permeability of the cosmetic agents through porcine skin was measured in vitro with a flow-through Franz diffusion cell system (Laboratory Glass Apparatus, Berkeley, Calif.). […] Skin micro-channeling was performed in cells defined as VD (ViaDerm) application group, and then TEWL was measured again to control the operation. The skin pieces were placed on the receiver chambers with the stratum corneum facing upwards, and the donor chambers were clamped in place. […] Samples from the acceptor solutions were collected into tubes (using a fraction collector, Retriever IV, ISCO, Lincoln, Nebr., USA) at predetermined times for up to 24 hr period. The samples were kept at 4° C. until analyzed by HPLC. Samples from the acceptor solutions (10-50 μl) were injected into HPLC system (Waters) equipped with a pre-packed LiChrospher C18 column (150×3.9 mm, 5 μm; Waters), and a UV detector. […] The Salicylic acid samples were separated using an isocratic mobile phase containing 5% methanol 25% Acetonitrile and 0.01 mol/l KH2PO4/H3PO4 buffer pH 2.3 in H2O, at a flow rate 1 ml/min. The detection of salicylic acid was performed at a wavelength of 237 nm. […] The detection of hydroquinone was performed at a wavelength of 280 nm. […] The permeation efficacy is defined as the % of penetrated agent out of total amount of the agent applied on the skin.

For series [3] the following is noted: over a 4 to 6 month period, systemic; cited from earlier work.
Setting [4] is: ViaDerm treated skin, after 24 h, 0.25 ml solution in donor chamber.
Setting [5] is: ViaDerm treated skin, 0.25 ml solution in donor chamber.
Where [6] appears, read: after 3 h, 0.25 ml solution in donor chamber.
Setting [7] is: after 24 h, 0.25 ml solution in donor chamber.
The mark [8] stands for this setting: control untreated skin, 0.25 ml solution in donor chamber.
Setting [9] is: untreated skin, after 24 h, 0.25 ml solution in donor chamber.

Here are results for 6 compounds from patent US8016810B2, “Transdermal delivery system for cosmetic agents” (TransPharma Medical Ltd., priority 2003, dated 2011).

Regarding `OC[C@H]1O[C@@H](Oc2ccc(O)cc2)[C@H](O)[C@@H](O)[C@@H]1O` [arbutin], in series [1], the “Quantity required to achieve a similar skin whitening effect, compared to the quantity of hydroquinone used” value is reported as “over 100 times”.

Consider `O=C1O[C@H]([C@@H](O)CO)C(O)=C1O` [ascorbic acid], for which the “Quantity required to achieve a similar skin whitening effect, compared to the quantity of hydroquinone used” value in series [1] was 17 times.

In the case of `Cn1c(=O)c2c(ncn2C)n(C)c1=O` [caffeine], the “Caffeine flux (plateau)” value in series [2] (ViaDerm pretreated skin, after 6 hours, 0.25 ml of 1% w/v aqueous solution) worked out at 18.5 ± 2.2 µg/mL. The Permeation efficacy in series [2] (ViaDerm pretreated skin, after 16 hours, 0.25 ml of 1% w/v solution) was 37.1±4.8%; in series [2] (untreated skin, after 16 hours, 0.25 ml of 1% w/v solution), 3.6±2.6%. Also, the “Permeation efficacy, ViaDerm in comparison to untreated skin” value in series [2] (after 16 hours, 0.25 ml of 1% w/v solution) turned out to be 10 fold. This compound came in with a Caffeine flux in series [2] (control untreated skin, after 6 hours, 0.25 ml of 1% w/v aqueous solution) of 0.4 ± 0.3 µg/mL. Besides, in series [2] (result in words (FIGS. 1, 2, 4)), the “Cumulative permeability through ViaDerm treated skin compared to intact skin” value was “enhanced”.

On to `Oc1ccc(O)cc1` [hydroquinone], for which the values for the Permeation efficacy in series [2] (setting [4]) and in series [2] (setting [9]) were 27% and 1%, respectively. Besides, the figures for the Total permeated amount in series [2] (setting [5]) and in series [2] (setting [8]) were 1824 μg/cm^2 and 62 μg/cm^2, respectively. Also, the “Difference in permeated amount, ViaDerm treated compared to untreated skin” value in series [2] (setting [6]) was 39 fold; in series [2] (setting [7]), 29 fold.

In the case of `CC1=C(/C=C/C(C)=C/C=C/C(C)=C\C(=O)O)C(C)(C)CCC1` [isotretinoin], the “Acne cleared by treatment” value in series [3] was not above 85%.

For `O=C(O)c1ccccc1O` [salicylic acid], the Permeation efficacy in series [2] (setting [4]) is recorded as 62%; in series [2] (setting [9]), 4%. Further, the Total permeated amount in series [2] (setting [5]) turned out to be 820 μg/cm^2; in series [2] (setting [8]), 84 μg/cm^2. Moreover, the “Difference in permeated amount, ViaDerm treated compared to untreated skin” value worked out at 17 fold in series [2] (setting [6]) and 10 fold in series [2] (setting [7]).
